From patent US11471484B2, “Fullerene and its use to maintain good health and to prolong the expected lifespan of mammals” (priority 2011, dated 2022)

Experiments:
[1] = Pharmacokinetics and biodistribution of an oily solution after oral and intra-peritoneal administration in rats; assay type: in vivo, male Wistar rats
Description: Pharmacokinetic studies were carried out with male Wistar rats (weighing 200-220 g). Rats were housed in individual cages and maintained in an air-conditioned room (22-25° C.) on a 12 h light/dark cycle with water and food available. The rats were acclimated for 7 days and they were fasted overnight but with access to water, before treatment.
Under general anesthesia, a catheter was introduced into the rat right jugular vein, positioned subcutaneously with the tip in the inter-scapular region. The prepared rats were then allowed to recover for 24 h, and the blood catheters were flushed with 0.9% NaCl solution containing 20 I U/ml of heparin to avoid possible clot obstruction. Before Ceo administration, the rats were fasted overnight but with access to water. The same single dose of Ceo (4 mg/kg) was delivered orally, by a gavages needle, or intra-peritoneally to two groups of three rats. Blood (0.20 ml) was withdrawn via the canular prior to dosing (f=0) and at 15, 30, 60 min and then at 2, 4, 8, 10, 12, 24 and 48 h post-dosing. Antithrombin heparin (20 IU/ml) was added in each blood sample. After each blood collection 0.20 ml of sterile 0.9% NaCl solution were injected to the animal, to avoid hypovolemia. The rats were sacrificed 48 h after eo administration for organ collection (livers, spleens, and brains).
Consequently, the area under the curve (AUC) is about 5 times larger when Ceo is administered by i.p. route as compared to oral route.

[2] = system: acute carbon tetrachloride intoxication in rats (free-radical-mediated liver injury); experiment: C60-induced protection of the liver against acute toxicity of carbon tetrachloride in rats; assay type: in vivo; settings: CCl4 model
From the text: Carbon tetrachloride is a classical hepatotoxicant that causes rapid liver damage progressing from steatosis to centrilobular necrosis. CCU intoxication in rodents is an important model far elucidation of the mechanism of action of hepatotoxic effects such as fatty degeneration, fibrosis, hepatocellular death, and carcinogenicity. These effects are consistent with the known induced metabolic activation of CCl4 to reactive intermediates, including CCl3″ and CCl02′ free radicals, and mobilization of intracellular calcium. Kupffer cells (liver resident macrophages) participate in the mechanism of toxicity of CCl4 in vivo by release of chemoattractants for neutrophils and a series of chemical mediators (cytokines). Both expression and synthesis of these cytokines are mainly modulated through redox-sensitive reactions. […] In a previous work, the effects of C60-pretreatments on acute carbon tetrachloride intoxication in rats, a classical model for studying free-radical-mediated liver injury was reported.

rats [3] = experiment: Longevity and chronic toxicity study in rats, oral gavage; assay type: in vivo
Description: The rats were housed one per cage and acclimated for 14 days, before dosing. Three groups of 10 rats (10 months old, weighing 495±31 g) were administered daily for one week, then weekly until the end of the second month and then every two weeks until the end of the 7th month, by gavages with 1 ml of water or olive oil or Ceo dissolved in olive oil (0.8 mg/ml), respectively. The rats were weighed before each dosing. Routine observations following official recommendations (EC Commission Directive 2004/73/EC of 29 Apr. 2004 Adapting to Technical Progress for the Twenty-Ninth Time Council Directive 67/548/EEC on the Approximation of the Laws, Regulations and Administrative Provisions Relating to the Classification, Packaging and Labeling of Dangerous Substances. O.J. No. L1522004) were made on all animals inside and outside the cage once a day throughout the study for signs of departure from normal activity, morbidity and mortality.
This experiment was initiated after observing that Ceo is absorbed through oral administration. To study the chronic toxicity of Ceo we designed a protocol according to the general guidelines of US food and drug administration (Chronic Toxicity Studies with Rodents in Toxicological Principles for the Safety Assessment of Food Ingredients. Redbook 2000, revised July 2007, Chapter IV.C.5.a. IV.C.5.a.) with some modifications. […]

[4] = Dissolution of C60 in vegetable oil; assay type: physicochemical; settings: in less than one week
From the text: (§1) Free radicals are constantly formed in vivo. Some of these molecules are physiologically useful, but they can also result in pathological oxidative stress to cells and tissues. Endogenous defences include both antioxidants and repairing systems. However, excess production of free radicals, their production in inappropriate relative amounts or deficiencies in endogenous defences can have deleterious effects. Free radicals can cause oxidative damage to lipids, DNA, bio molecules, rises in the concentration of intracellular calcium, as well as activation of proteases, nucleases and protein kinases. Considerable evidence supports the view that oxidative damage involving free radicals occurs in most, if not all, human diseases. Oxidative stress is now recognized as an important contributor to the development of many human diseases including liver fibrosis, ischemia-reperfusion, atherosclerosis, several neurological disorders and age-related cancer as well as to process of ageing. Thus antioxidants and systems that can protect against oxidative stress are needed to maintain health and prolong the expected lifespan in metazoans. This has led to attempts to develop additional antioxidants to supplement the antioxidant defences of cells as potential therapeutic agents. […]

mice = experiment: Acute or sub-acute toxicity in mice; assay type: in vivo; settings: large amounts administered
From the text: as §1

rats [5] = experiment: Acute or sub-acute toxicity in rats; assay type: in vivo; settings: large amounts administered
From the text: as §1

[6] = system: acute carbon tetrachloride intoxication in rats (free-radical-mediated liver injury); settings: CCl4 model, intra-peritoneal, aqueous suspension; cited from earlier work

## c12c3c4c5c1c1c6c7c2c2c8c3c3c9c4c4c%10c5c5c1c1c6c6c%11c7c2c2c7c8c3c3c8c9c4c4c9c%10c5c5c1c1c6c6c%11c2c2c7c3c3c8c4c4c9c5c1c1c6c2c3c41 [[60]fullerene]
[1]; 4 mg/kg, i.p. versus oral
  area under the curve (AUC), i.p. route as compared to oral route: about 5 times
[1]; 4 mg/kg, oral or i.p.
  distribution, brain barrier: can cross the brain barrier
[1]; intraperitoneal or oral administration
  absorption and elimination: absorbed and eliminated
[2]; compared with results of Nano Letters 2005
  activity in solution compared with suspension: about 100 times
[2]; fullerene in solution
  time of effect after administration: 24 h
Rats [3]; oral administration
  longevity: increases significantly the longevity
Rats [3]; per os 1 ml of olive oil containing 0.8 mg C60 (FIG. 1)
  behaviour or growth disorder: No behaviour or growth disorder could be observed
[4]; olive oil
  amount dissolved per g of oil: up to 1 mg of C60 per g
[4]; soybean oil
  amount dissolved per g of oil: up to 1 mg of C60 per g
mice
  acute or sub-acute toxicity: no acute or sub-acute toxicity could be observed
Rats [5]
  acute or sub-acute toxicity: no acute or sub-acute toxicity could be observed
[6]
  day of better protection after administration: 14 days
  most effective dose: about 2.5 g/kg of body-weight
